Common to all, as to assay type: cell-based, human
For one test, the system named is Hep3B. The test is described as follows: Cell viability, crystal violet assay, Hep3B. The conditions noted are these: mean ± standard error. An excerpt: The human hepatoma cell line HepG2 was obtained from the American Tissue Culture Collection (ATCC, Manassas, VA, USA). The human hepatoma cell line Hep3B was obtained from the European Collection of Authenticated Cell Cultures (ECACC, Porton Down, Salisbury, Wiltshire, UK). HH4 non-transformed human hepatocyte cell line (kindly provided by Dr. I. Fabregat, Molecular Oncology, Bellvitge Biomedical Research Institute, Spain) was established as described.
HepG2 and Hep3B cell lines were maintained in Eagle’s Minimum Essential Medium and HH4 cell line was grown in Ham´s F12 Nutrient Mixture (Sigma-Aldrich, St Louis, MO, USA). Both culture media were supplemented with 10% heat inactivated fetal bovine serum, 2 mM L-glutamine and antibiotics (0.1 mg/mL streptomycin and 100 U/mL penicillin) (Sigma-Aldrich, St Louis, MO, USA). Cell cultures were grown in an incubator at 37 °C with 5% CO2 atmosphere. After reaching approximately 80% of confluence, cells were detached in a solution of 0.1% trypsin and 0.04% EDTA and plated as required for further experiments.
Cell lines were seeded into 96-well plates at 5 × 10^3 (HepG2) and 3 × 10^3 (Hep3B and HH4) cells/well 24 h before treatment. Increasing concentrations of the monomer trans-resveratrol, the dimers ampelopsin A and trans-ε-viniferin and the tetramers isohopeaphenol, hopeaphenol, R2-viniferin and R-viniferin were then added and cells were incubated for 24, 48, and 72 h. Stilbenes were dissolved in dimethyl sulfoxide (DMSO), Sigma-Aldrich, St Louis, MO, USA) at a final concentration of 0.01%. The same amount of DMSO was added to control cells. After treatment, the cell viability was determined using the crystal violet assay. The absorbance was recorded at 590 nm in a Synergy HT microplate reader (BioTek, Winooski, VT, USA). Cell viability was calculated as the percentage of viable cells treated with stilbene versus untreated control cells using the following equation: Cell viability (%) = [OD (Treatment) − OD (Blank)]/[OD (Control) − OD (Blank)] × 100. The cytotoxic effect of stilbenes was determined by calculating IC50 values using non-linear regression analysis (GraphPad Prism 6, San Diego, CA, USA).
The statistical package SPSS 19.0 (SPSS Inc. Chicago, IL, USA) was used for data analysis. The results were expressed as mean ± standard error (SE) from at least three experiments. Statistical significance for the differences of the means was estimated by parametric Student’s t-test. Differences between means were considered statistically significant for p < 0.05. IC50 values were derived from fitting the data to a sigmoidal dose-response curve with a three-parameter logistic model using Graph Pad Prism 6.

For test [1], the system named is intracellular ROS in HepG2. As to the kind of experiment: Intracellular ROS, H2DCF-DA assay, flow cytometry. How it is done: Intracellular levels of reactive oxygen species (ROS) were measured using the cell-permeant 2’,7’ dichlorodihydrofluorescein diacetate (H2DCF-DA) probe (Molecular Probes, Eugene, OR, USA), which permeates living cells and is deacetylated and oxidized upon ROS exposure inside the cell, forming the fluorescent 2’,7’-dichlorofluorescein (DCF).
(§1) HepG2 cells were cultured in a 6-well cell culture plate at a density of 2 × 10^5 cells per well 24 h before starting the treatment with R2-viniferin. The medium was renewed and cells were incubated with R2-viniferin as described above. After treatment, cells were washed and incubated with 20 μM H2DCF-DA or 4 μM MitoSOX™ for 30 min at 37 °C in the dark. The probe solution was then withdrawn and, after washing with PBS, the cells were trypsinized. The fluorescence intensity from living cells was measured by flow cytometry (DCF λex = 485/20 and λem = 528/20, MitoSOX λex = 485/20 and λem = 620/20) in a Beckman Coulter Gallios Flow cytometer in the General Research Services SGIker of the UPV/EHU. At least 10,000 events were detected. Data obtained from flow cytometry were analyzed using Summit 4.3 software (Dako, Hovedstaden, Denmark). Intracellular ROS and mitochondrial O2^− were expressed as the percentage of the fluorescence intensity in control cells at the same time of incubation.
On the technique in general: A flow cytometer gives signals particle by particle.

Test [2] has as its system mitochondrial O2- in HepG2. The test is described as follows: Mitochondrial O2- levels, MitoSOX probe, flow cytometry. The conditions noted are these: HepG2, 5 and 10 µM, any of the doses or times assayed. The procedure:
The mitochondrial superoxide anion (O2^−) levels were measured using MitoSOX™Red reagent (Molecular Probes, Eugene, OR, USA), which permeates living cells where it selectively targets mitochondria and is oxidized by superoxide.
as §1

The test system of test [3] is Bax and Bcl-2 expression in HepG2 cells. The test is described as follows: Western blot analysis of Bax and Bcl-2 expression. The conditions noted are these: 24 h. How it is done: HepG2 cells were seeded in Petri dishes, incubated for 24 h and then treated with 5 and 10 µM R2-viniferin. Following 24 h of treatment, the cells were lysed in ice for 30 min with lysis buffer (20 mM HEPES pH 7.5, 1 mM NaF, 10 mM EGTA, 40 mM β-glycerophosphate, 1% NP-40, 2.5 mM MgCl2, 2 mM orthovanadate, and 1 mM DTT) to which 10 μL/mL of a protease inhibitor cocktail (Sigma-Aldrich, St Louis, USA) was added just before use. Cellular fragments were removed by centrifugation at 12,000× g for 10 min at 4 °C, and total protein concentration was determined by Bradford assay. The cellular protein extracts were boiled at 95 °C for 5 min in Laemmli buffer and separated by sodium dodecyl sulfate–polyacrylamide gel electrophoresis in 15% polyacrylamide gels. Proteins were transferred onto polyvinylidene difluoride (PVDF) membranes by electro-blotting with constant amperage (1 mA/cm^2) for 2 h in a wet chamber. After blocking for 1 h in 5% bovine serum albumin (BSA) Tris-buffered saline containing Tween 20 at room temperature, membranes were incubated overnight at 4 °C with antibodies to Bax (Santa Cruz Biotechnology, 1:500), Bcl-2 (Santa Cruz Biotechnology, 1:500) and glyceraldehyde-3-phosphate dehydrogenase (GAPDH, Abcam, 1:2000). After washing, membranes were probed with their corresponding secondary antibody conjugated to horseradish peroxidase for 1 h at room temperature. Specific proteins were detected using the enhanced chemiluminescence (ECL) substrate kit (Clarity Western ECL substrate, Bio-Rad, Hercules, California, USA) and the blots were imaged with the C-DiGit LI-COR blot scanner (Bonsai Advanced technologies S.L. Madrid, Spain). Intensities of target protein bands were determined by densitometry and normalized to the intensity of the loading control GAPDH protein.

The source of these data is paper PMC7346113, “Screening of Natural Stilbene Oligomers from Vitis vinifera for Anticancer Activity on Human Hepatocellular Carcinoma Cells” (Antioxidants, 2020).

Usually IC50 stands for the concentration that gives 50% inhibition. As for `Oc1ccc([C@H]2c3c(O)cc(O)cc3[C@H]3c4c(cc(O)cc4[C@@H]2c2cc(/C=C/c4cc(O)cc5c4[C@H](c4cc(O)cc(O)c4)[C@@H](c4ccc(O)cc4)O5)ccc2O)O[C@@H]3c2ccc(O)cc2)cc1` [R2-Viniferin], the IC50 in the test with Hep3B (72 h) is 47.8 ± 2.8 µM; in the test with Hep3B (Homo sapiens, Hep3B, 24 h), over 200 µM; in the test with Hep3B (Homo sapiens, Hep3B, 48 h) it was 43.9 ± 3.6 µM; in the test on Hep3B (Homo sapiens, Hep3B, 72 h), 48 µM. In addition, the “Effect on intracellular ROS concentration” value in test [1] (HepG2, 5 and 10 µM, from the first time assayed) is “increased the intracellular ROS concentration dose-dependently”. Moreover, the “Effect on intracellular ROS” value in test [1] (HepG2, highest concentration used (10 µM)) is given as “ROS remained significantly elevated up to 72 h”. In addition, in test [2], the “Effect on mitochondrial O2-” value is “no significant effect”. For the same compound, the “Bax/Bcl-2 ratio increase over control” value in test [3] (HepG2, 5 µM) was found to be 39%; in test [3] (HepG2, 10 µM) it was 123%. Moreover, the “Expression of anti-apoptotic Bcl-2 proteins” value in test [3] (HepG2, 5 and 10 µM) is “downregulated”. In addition, the “Expression of proapoptotic Bax protein” value in test [3] (HepG2, 5 and 10 µM) is “upregulated”.
